Measurements from patent US8648081B2 (Eli Lilly and Company, priority 2011, dated 2014).

These compounds were tested on Lone star tick larvae (Amblyomma americanum) (assay: In Vitro Larval Immersion Microassay (LIM)). Details: read-out: % Efficacy (percent larval mortality).
Description: In Vitro Larval Immersion Microassay (LIM)
The larval immersion microassay may be conducted as described in White, et al., J. Med. Entomol. […] Briefly, experimental test articles are formulated in dimethylsulfoxide (DMSO) to prepare a stock solution at a concentration of 10 mM. […] Approximately 30-50 Lone star tick larvae (Amblyomma americanum) are submerged into each well containing experimental test articles. After a 30 minute immersion period, larvae are removed with a wide-bore pipette tip in 0.05 ml of fluid, dispensed into a commercial paper tissue biopsy bag which is sealed at the top with a plastic dialysis clip, inverted and allowed to air dry for 60 minutes. Bags containing larvae are then incubated at approximately 27 degrees Celsius and >90% relative humidity. After 24 hours, bags are opened, live and dead larvae are counted and percent larval mortality is calculated as follows: % Efficacy=(# dead larvae)/(# total larvae)×100.
For `O=C(N[C@@H]1CCNC1=O)c1sc(C2=NOC(c3cc(Cl)c(Cl)c(Cl)c3)(C(F)(F)F)C2)c2c1CCC2` (stereo partly drawn) [Example 53, N-((R)-2-oxopyrrolidin-3-yl)-3-(5-(3,4,5-trichlorophenyl)-5-(trifluoromethyl)-4,5-dihydroisoxazol-3-yl)-5,6-dihydro-4H-cyclopenta[c] thiophene-1-carboxamide], the mortality at 300 µM was at least 80%.
`N#CCNC(=O)CNC(=O)c1sc(C2=NOC(c3cc(Cl)c(Cl)c(Cl)c3)(C(F)(F)F)C2)c2c1CCC2` (stereo not shown) [Example 54, N-(2-(cyanomethyl-amino)-2-oxoethyl)-3-(5-(3,4,5-trichloro-phenyl)-5-(trifluoro-methyl)-4,5-dihydro-isoxazol-3-yl)-5,6-dihydro-4H-cyclo-penta[c]thiophene-1-carboxamide] was tested, and the mortality at 300 µM was at least 80%.
With `C#CCNC(=O)CNC(=O)c1sc(C2=NOC(c3cc(Cl)c(Cl)c(Cl)c3)(C(F)(F)F)C2)c2c1CCC2` (stereo not drawn) [Example 55, N-(2-oxo-2-(prop-2-ynylamino)ethyl)-3-(5-(3,4,5-trichlorophenyl)-5-(trifluoromethyl)-4,5-dihydroisoxazol-3-yl)-5,6-dihydro-4H-cyclo-penta[c]thiophene-l-carboxamide] the mortality at 300 µM was at least 80%.
In the case of `O=C(NC1CCN(CC(F)(F)F)C1=O)c1sc(C2=NOC(c3cc(Cl)c(Cl)c(Cl)c3)(C(F)(F)F)C2)c2c1CCC2` (stereo not shown) [Example 56, N-(2-oxo-1-(2,2,2-trifluoroethyl)pyrrolidin-3-yl)-3-(5-(3,4,5-trichlorophenyl)-5-(trifluoromethyl)-4,5-dihydroisoxazol-3-yl)-5,6-dihydro-4H-cyclopenta[c] thiophene-1-carboxamide], the mortality at 300 µM is reported as at least 80%.
Work on `O=C(CNC(=O)c1sc(C2=NOC(c3cc(Cl)c(F)c(Cl)c3)(C(F)(F)F)C2)c2c1CCC2)NCC(F)(F)F` (stereo not shown) [Example 57, 3-(5-(3,5-dichloro-4-fluorophenyl)-5-(trifluoromethyl)-4,5-dihydroisoxazol-3-yl)-N-(2-oxo-2-(2,2,2-trifluoroethylamino)ethyl)-5,6-dihydro-4H-cyclopenta[c] thiophene-1-carboxamide] yielded a mortality at 300 µM of at least 80%.
`O=C(N[C@@H]1CCNC1=O)c1sc(C2=NOC(c3cc(Cl)c(F)c(Cl)c3)(C(F)(F)F)C2)c2c1CCC2` (stereo partly drawn) [Example 58, 3-(5-(3,5-dichloro-4-fluorophenyl)-5-(trifluoromethyl)-4,5-dihydroisoxazol-3-yl)-N-((R)-2-oxopyrrolidin-3-yl)-5,6-dihydro-4H-cyclopenta[c] thiophene-1-carboxamide] gave a mortality at 300 µM of at least 80%.
`N#CCNC(=O)CNC(=O)c1sc(C2=NOC(c3cc(Cl)c(F)c(Cl)c3)(C(F)(F)F)C2)c2c1CCC2` (stereo not shown) [Example 59, N-(2-(cyanomethyl-amino)-2-oxoethyl)-3-(5-(3,5-dichloro-4-fluorophenyl)-5-(trifluoromethyl)-4,5-dihydroisoxazol-3-yl)-5,6-dihydro-4H-cyclopenta[c] thiophene-1-carboxamide] gave a mortality at 300 µM of at least 80%.
Work on `O=C(NC1CCN(CC(F)(F)F)C1=O)c1sc(C2=NOC(c3cc(Cl)c(F)c(Cl)c3)(C(F)(F)F)C2)c2c1CCC2` (stereo not shown) [Example 60, 3-(5-(3,5-dichloro-4-fluorophenyl)-5-(trifluoromethyl)-4,5-dihydroisoxazol-3-yl)-N-(2-oxo-1-(2,2,2-trifluoroethyl)pyrrolidin-3-yl)-5,6-dihydro-4H-cyclopenta[c] thiophene-1-carboxamide] yielded a mortality at 300 µM of at least 80%.
Work on `C#CCNC(=O)CNC(=O)c1sc(C2=NOC(c3cc(Cl)c(F)c(Cl)c3)(C(F)(F)F)C2)c2c1CCC2` (stereo not shown) [Example 61, 3-(5-(3,5-dichloro-4-fluorophenyl)-5-(trifluoromethyl)-4,5-dihydroisoxazol-3-yl)-N-(2-oxo-2-(prop-2-ynylamino)ethyl)-5,6-dihydro-4H-cyclopenta[c] thiophene-1-carboxamide] yielded a mortality at 300 µM of at least 80%.
`O=C(CNC(=O)c1sc(C2=NOC(c3cc(Cl)cc(Cl)c3)(C(F)(F)F)C2)c2c1CCCC2)NCC(F)(F)F` (stereo not shown) [Example 62, 3-(5-(3,5-dichloro-phenyl)-5-(trifluoro-methyl)-4,5-dihydro-isoxazol-3-yl)-N-(2-oxo-2-(2,2,2-trifluoroethylamino)ethyl)-4,5,6,7-tetrahydrobenzo[c] thiophene-1-carboxamide] showed a mortality at 300 µM of at least 80%.
For `CCNC(=O)CNC(=O)c1sc(C2=NOC(c3cc(Cl)cc(Cl)c3)(C(F)(F)F)C2)c2c1CCCC2` (stereo not shown) [Example 63, 3-(5-(3,5-dichloro-phenyl)-5-(trifluoro-methyl)-4,5-dihydro-isoxazol-3-yl)-N-(2-(ethylamino)-2-oxoethyl)-4,5,6,7-tetrahydrobenzo [c]thiophene-1-carboxamide], the mortality at 300 µM was at least 80%.
Compound `O=C(NCC1CCCO1)c1sc(C2=NOC(c3cc(Cl)cc(Cl)c3)(C(F)(F)F)C2)c2c1CCCC2` (stereo not shown) [Example 64, 3-(5-(3,5-dichloro-phenyl)-5-(trifluoro-methyl)-4,5-dihydro-isoxazol-3-yl)-N-((tetrahydrofuran-2-yl)methyl)-4,5,6,7-tetrahydro-benzo[c]thiophene-1-carboxamide] has a mortality at 300 µM of at least 80%.
`CSCCNC(=O)c1sc(C2=NOC(c3cc(Cl)cc(Cl)c3)(C(F)(F)F)C2)c2c1CCCC2` (stereo not shown) [Example 65, 3-(5-(3,5-dichloro-phenyl)-5-(trifluoro-methyl)-4,5-dihydro-isoxazol-3-yl)-N-(2-(methylthio)ethyl)-4,5,6,7-tetra-hydrobenzo[c] thiophene-1-carboxamide] gave a mortality at 300 µM of at least 80%.
`O=C(NCCC(F)(F)F)c1sc(C2=NOC(c3cc(Cl)cc(Cl)c3)(C(F)(F)F)C2)c2c1CCCC2` (stereo not shown) [Example 66, 3-(5-(3,5-dichloro-phenyl)-5-(trifluoro-methyl)-4,5-dihydro-isoxazol-3-yl)-N-(3,3,3-trifluoropropyl)-4,5,6,7-tetrahydrobenzo[c] thiophene-1-carboxamide] showed a mortality at 300 µM of at least 80%.
With `O=C(NC1CCCC(O)C1)c1sc(C2=NOC(c3cc(Cl)cc(Cl)c3)(C(F)(F)F)C2)c2c1CCCC2` (stereo not shown) [Example 67, 3-(5-(3,5-dichloro-phenyl)-5-(trifluoro-methyl)-4,5-dihydro-isoxazol-3-yl)-N-(3-hydroxycyclohexyl)-4,5,6,7-tetrahydrobenzo [c]thiophene-1-carboxamide] the mortality at 300 µM was at least 80%.
`O=C(Nc1ccc(F)cn1)c1sc(C2=NOC(c3cc(Cl)cc(Cl)c3)(C(F)(F)F)C2)c2c1CCCC2` (stereo not shown) [Example 68, 3-(5-(3,5-dichloro-phenyl)-5-(trifluoro-methyl)-4,5-dihydro-isoxazol-3-yl)-N-(5-fluoropyridin-2-yl)-4,5,6,7-tetrahydro-benzo[c]thiophene-1-carboxamide] was tested, and the mortality at 300 µM was at least 80%.
`O=C(NC1CCCOC1)c1sc(C2=NOC(c3cc(Cl)cc(Cl)c3)(C(F)(F)F)C2)c2c1CCCC2` (stereo not shown) [Example 69] gave a mortality at 300 µM of at least 80%.
With `O=C(NC1CSC1)c1sc(C2=NOC(c3cc(Cl)cc(Cl)c3)(C(F)(F)F)C2)c2c1CCCC2` (stereo not shown) [Example 70, 3-(5-(3,5-dichloro-phenyl)-5-(trifluoro-methyl)-4,5-dihydro-isoxazol-3-yl)-N-(thietan-3-yl)-4,5,6,7-tetrahydrobenzo[c] thiophene-1-carboxamide] the mortality at 300 µM was at least 80%.
`O=C(NC1CCOCC1)c1sc(C2=NOC(c3cc(Cl)cc(Cl)c3)(C(F)(F)F)C2)c2c1CCCC2` (stereo not shown) [Example 71, 3-(5-(3,5-dichloro-phenyl)-5-(trifluoro-methyl)-4,5-dihydro-isoxazol-3-yl)-N-(tetrahydro-2H-pyran-4-yl)-4,5,6,7-tetrahydrobenzo [c]thiophene-1-carboxamide] was tested, and the mortality at 300 µM was at least 80%.
`O=C(NC1CCN(C2CC2)C1=O)c1sc(C2=NOC(c3cc(Cl)cc(Cl)c3)(C(F)(F)F)C2)c2c1CCCC2` (stereo not shown) [Example 72] showed a mortality at 300 µM of at least 80%.
With `O=C(NC1CCS(=O)(=O)CC1)c1sc(C2=NOC(c3cc(Cl)c(Cl)c(Cl)c3)(C(F)(F)F)C2)c2c1CCCC2` (stereo not shown) [Example 75, 3-[5-(3,4,5-Trichloro-phenyl)-5-trifluoro-methyl-4,5-dihydro-isoxazol-3-yl]-4,5,6,7-tetrahydro-benzo[c]thiophene-1-carboxylic acid (1,1-dioxo-hexahydro-thiopyran-4-yl)-amide] the mortality at 300 µM was at least 80%.
`O=C(NC1CCN(CC(F)(F)F)C1=O)c1sc(C2=NOC(c3cc(Cl)c(Cl)c(Cl)c3)(C(F)(F)F)C2)c2c1CCCC2` (stereo not shown) [Example 76, N-(2-oxo-1-(2,2,2-trifluoroethyl)pyrrolidin-3-yl)-3-(5-(3,4,5-trichloro-phenyl)-5-(trifluoro-methyl)-4,5-dihydro-isoxazol-3-yl)-4,5,6,7-tetrahydro-benzo[c]thiophene-1-carboxamide] gave a mortality at 300 µM of at least 80%.
`O=C(NC1CCOCC1)c1sc(C2=NOC(c3cc(Cl)c(Cl)c(Cl)c3)(C(F)(F)F)C2)c2c1CCCC2` (stereo not shown) [Example 77, N-(tetrahydro-2H-pyran-4-yl)-3-(5-(3,4,5-trichlorophenyl)-5-(trifluoromethyl)-4,5-dihydroisoxazol-3-yl)-4,5,6,7-tetrahydrobenzo[c] thiophene-1-carboxamide] gave a mortality at 300 µM of at least 80%.
`O=C(NC1CCN(C2CC2)C1=O)c1sc(C2=NOC(c3cc(Cl)c(Cl)c(Cl)c3)(C(F)(F)F)C2)c2c1CCCC2` (stereo not shown) [Example 78, N-(1-cyclopropyl-2-oxopyrrolidin-3-yl)-3-(5-(3,4,5-trichloro-phenyl)-5-(trifluoro-methyl)-4,5-dihydro-isoxazol-3-yl)-4,5,6,7-tetrahydrobenzo[c] thiophene-1-carboxamide] gave a mortality at 300 µM of at least 80%.

Same assay, conditions: tested at 300 micromolar, 30 minute immersion, mortality counted after 24 hours, read-out: % Efficacy (percent larval mortality)
With `C#CCNC(=O)CNC(=O)c1sc(C2=NOC(c3sc(Cl)c(Cl)c3Cl)(C(F)(F)F)C2)c2c1CCCC2` (stereo not shown) [Example 74, N-(2-oxo-2-(prop-2-ynylamino)ethyl)-3-(5-(3,4,5-trichloro-thiophen-2-yl)-5-(trifluoromethyl)-4,5-dihydroisoxazol-3-yl)-4,5,6,7-tetrahydro-benzo[c]thiophene-1-carboxamide] the mortality at 300 µM was at least 80%.
